In one data set the test system is HIV-IIIb. The data set can be described thus: Test A: Antiviral Assay in MT4 Cells. It is filed as cell-based, HIV-1. Conditions: inhibition of virus-induced cell killing, MT-4 cells, HIV-IIIb, 5 days, values normalized to 100%; for inhibition at 0.01 µM / inhibition at 0.2 µM: Human immunodeficiency virus 1, MT4, 120 h; for inhibition at 0.01 µM: read-out: % inhibition at 0.01 μM; for inhibition at 0.2 µM: read-out: % inhibition at 0.20 μM. In outline:
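MT-4 cells infected with HIV-IIIb at m.o.i. 0.003 for 1 hour, then added at 2000 cells per well to diluted compound. Incubated 5 days at 37° C. Cell viability read as CellTiter-Glo chemiluminescence after 10 min lysis at room temperature.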

Another data set relates to MT-4 cells. The data set is described as follows: Test B: Cytotoxicity Assay (same protocol as Test A, uninfected cells). The format is cell-based. Conditions: uninfected MT-4 cells, 5 days, CellTiter-Glo.
Test in data set [1]: as above
The format is cell-based. Conditions: human, uninfected MT-4 cells, CellTiter-Glo.

The mark [2] stands for this setting: from dose response curve at 0.01 μM (10 nM).
The mark [3] stands for this setting: from dose response curve at 0.20 μM (200 nM).

As for `CC(C)(O)c1nnc(Nc2nn(CC(F)F)c3c(-c4ccc(C#CC(C)(C)S(=O)(=O)C5CC5)nc4[C@H](Cc4cc(F)cc(F)c4)NC(=O)Cn4nc(C(F)F)c5c4C(F)(F)[C@@H]4C[C@H]54)ccc(Cl)c23)o1` [Example 24], in the data set with HIV-IIIb (setting [2]), the inhibition at 0.01 µM was 100%. The inhibition at 0.2 µM with HIV-IIIb (setting [3]) is 100%. This compound showed a cytotoxic concentration (CC50) in the data set on MT-4 cells of 9.07 µM.

Consider `CC(C)(O)c1nnc(Nc2nn(CC(F)F)c3c(-c4ccc(C#CC(C)(C)S(=O)(=O)C5CC5)nc4[C@H](Cc4cc(F)cc(F)c4)NC(=O)Cn4nc(C(F)F)c5c4C(F)(F)[C@@H]4C[C@H]54)ccc(Cl)c23)o1` [Example 25], for which the “% inhibition at 0.01 μM” value with HIV-IIIb (setting [2]) stood at 100%. Moreover, the “% inhibition at 0.20 μM” value with HIV-IIIb (setting [3]) was 100%. This compound also came in with a cytotoxic concentration (CC50) with MT-4 cells of more than 57.1 µM.

Consider `Cn1nc(NS(C)(=O)=O)c2c(Cl)ccc(-c3ccc(C#CC(C)(C)S(=O)(=O)C4CC4)nc3[C@H](Cc3cc(F)cc(F)c3)NC(=O)Cn3cc(C(F)(F)F)cn3)c21` [Example 65], for which the inhibition at 0.01 µM in the data set with HIV-IIIb (setting [2]) turned out to be 27%. Further, in the data set on HIV-IIIb (setting [3]), the inhibition at 0.2 µM was found to be 100%. The same compound yielded a CC50 at 5 days in data set [1] of more than 50 µM.

With `Cn1nc(NS(C)(=O)=O)c2c(Cl)ccc(-c3ccc(C#CC(C)(C)S(=O)(=O)C4CC4)nc3[C@H](Cc3cc(F)cc(F)c3)NC(=O)Cc3ncc[nH]3)c21` [Example 66], the inhibition at 0.01 µM in the data set with HIV-IIIb (setting [2]) was found to be 61%. The inhibition at 0.2 µM in the data set on HIV-IIIb (setting [3]) is 97%. For the same compound, the CC50 at 5 days in data set [1] came out at 11.7 µM.

Turning to `CCS(=O)(=O)Nc1nn(CC(F)(F)F)c2c(-c3ccc(C#CC(C)(C)S(=O)(=O)C4CC4)nc3[C@H](Cc3cc(F)cc(F)c3)NC(=O)Cn3nc(C(F)(F)F)c4c3C(F)(F)[C@@H]3C[C@H]43)ccc(Cl)c12` [Example 67], the inhibition at 0.01 µM in the data set on HIV-IIIb (setting [2]) amounted to 13%. Also, the inhibition at 0.2 µM in the data set with HIV-IIIb (setting [3]) stood at 0%. This compound yielded a CC50 at 5 days in data set [1] of more than 50 µM.

Take `CC(C)(C#Cc1ccc(-c2ccc(Cl)c3c(NS(C)(=O)=O)nn(CC(F)(F)F)c23)c([C@H](Cc2cc(F)cc(F)c2)NC(=O)Cn2nc(C(F)(F)F)c3c2C(F)(F)[C@@H]2C[C@H]32)n1)S(=O)(=O)C1CC1` [Example 68]: the inhibition at 0.01 µM with HIV-IIIb (setting [2]) turned out to be 100%. For the same compound, the inhibition at 0.2 µM in the data set with HIV-IIIb (setting [3]) stood at 100%. The half-maximal cytotoxic concentration (CC50) at 5 days in data set [1] is more than 50 µM.

In the case of `CC(C)(C#Cc1ccc(-c2ccc(Cl)c3c(NS(=O)(=O)C4CC4)nn(C4COC4)c23)c([C@H](Cc2cc(F)cc(F)c2)NC(=O)Cn2nc(C(F)(F)F)c3c2C(F)(F)[C@@H]2C[C@H]32)n1)S(=O)(=O)C1CC1` [Example 69], the inhibition at 0.01 µM in the data set with HIV-IIIb (setting [2]) was determined as 92%. For the same compound, in the data set with HIV-IIIb (setting [3]), the inhibition at 0.2 µM turned out to be 92%. Also, the cytotoxic concentration (CC50) at 5 days in data set [1] is more than 50 µM.

The values above are taken from patent US11753399B2, “Therapeutic compounds” (Gilead Sciences, Inc., priority 2018, dated 2023).
